Columns and labels:
Assay in all cases: relative viability (nuclei count vs DMSO), 5 days (fraction); higher = more cells survive
17-AAG + Vorinostat = compound: C=CCNC1=C2C[C@@H](C)C[C@H](OC)[C@H](O)[C@@H](C)/C=C(\C)[C@H](OC(N)=O)[C@@H](OC)/C=C\C=C(/C)C(=O)NC(=CC1=O)C2=O [17-AAG] + O=C(CCCCCCC(=O)Nc1ccccc1)NO [Vorinostat] (partner 1 µM)
Outline: (§1)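 Five library-drug doses in √10 steps were combined with a fixed anchor-drug dose, or a single drug was given alone, by pin tool to lung cancer cell lines in 1536-well plates the day after seeding. Nuclei were stained and counted after 5 days. Relative viability is the nuclei count in treated wells over that in vehicle wells, taken as the median of duplicate plates.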

17-AAG + Dasatinib = compound: C=CCNC1=C2C[C@@H](C)C[C@H](OC)[C@H](O)[C@@H](C)/C=C(\C)[C@H](OC(N)=O)[C@@H](OC)/C=C\C=C(/C)C(=O)NC(=CC1=O)C2=O [17-AAG] + Cc1nc(Nc2ncc(C(=O)Nc3c(C)cccc3Cl)s2)cc(N2CCN(CCO)CC2)n1 [Dasatinib] (partner 0.075 µM)
Outline: as §1

17-AAG + Crizotinib = compound: C=CCNC1=C2C[C@@H](C)C[C@H](OC)[C@H](O)[C@@H](C)/C=C(\C)[C@H](OC(N)=O)[C@@H](OC)/C=C\C=C(/C)C(=O)NC(=CC1=O)C2=O [17-AAG] + C[C@@H](Oc1cc(-c2cnn(C3CCNCC3)c2)cnc1N)c1c(Cl)ccc(F)c1Cl [Crizotinib] (partner 1 µM)
Outline: as §1

17-AAG + Navitoclax = compound: C=CCNC1=C2C[C@@H](C)C[C@H](OC)[C@H](O)[C@@H](C)/C=C(\C)[C@H](OC(N)=O)[C@@H](OC)/C=C\C=C(/C)C(=O)NC(=CC1=O)C2=O [17-AAG] + CC1(C)CCC(c2ccc(Cl)cc2)=C(CN2CCN(c3ccc(C(=O)NS(=O)(=O)c4ccc(N[C@H](CCN5CCOCC5)CSc5ccccc5)c(S(=O)(=O)C(F)(F)F)c4)cc3)CC2)C1 [Navitoclax] (partner 0.5 µM)
Outline: as §1

Cell Line	relative viability (17-AAG + Vorinostat; first compound 0.00128 µM)	relative viability (17-AAG + Vorinostat; first compound 0.004048 µM)	relative viability (17-AAG + Vorinostat; first compound 0.0128 µM)	relative viability (17-AAG + Vorinostat; first compound 0.04048 µM)	relative viability (17-AAG + Vorinostat; first compound 0.128 µM)	relative viability (17-AAG + Dasatinib; first compound 0.00128 µM)	relative viability (17-AAG + Dasatinib; first compound 0.004048 µM)	relative viability (17-AAG + Dasatinib; first compound 0.0128 µM)	relative viability (17-AAG + Dasatinib; first compound 0.04048 µM)	relative viability (17-AAG + Dasatinib; first compound 0.128 µM)	relative viability (17-AAG + Crizotinib; first compound 0.00128 µM)	relative viability (17-AAG + Crizotinib; first compound 0.004048 µM)	relative viability (17-AAG + Crizotinib; first compound 0.0128 µM)	relative viability (17-AAG + Crizotinib; first compound 0.04048 µM)	relative viability (17-AAG + Crizotinib; first compound 0.128 µM)	relative viability (17-AAG + Navitoclax; first compound 0.00128 µM)	relative viability (17-AAG + Navitoclax; first compound 0.004048 µM)	relative viability (17-AAG + Navitoclax; first compound 0.0128 µM)	relative viability (17-AAG + Navitoclax; first compound 0.04048 µM)	relative viability (17-AAG + Navitoclax; first compound 0.128 µM)
NCI-H3122	0.934	0.816	0.219	0.111	0.0733	0.854	0.754	0.0689	0.0681	0.0701	0.285	0.258	0.233	0.246	0.173	1.02	1.02	0.949	0.194	0.159
NCI-H1703											0.611	0.634	0.129	0.151	0.119	0.961	0.22	0.16	0.162	0.125
NCI-H1755	0.815	0.735	0.712	0.589	0.243	0.478	0.401	0.324	0.213	0.118	0.888	0.841	0.84	0.588	0.209	1.01	1	0.957	0.8	0.315
NCI-H2087	0.996	0.656	0.252	0.116	0.116	0.872	0.49	0.0992	0.13	0.0882	0.861	0.66	0.321	0.213	0.148	0.96	0.754	0.284	0.202	0.195
NCI-H661	0.785	0.791	0.707	0.441	0.31	0.878	0.862	0.853	0.361	0.195	1.13	1.02	0.947	0.841	0.532					
EBC-1											0.237	0.207	0.163	0.148	0.135	0.514	0.203	0.157	0.182	0.126
NCI-H1299											0.975	0.932	0.897	0.814	0.237	1.04	1.01	1.07	0.952	0.755
NCI-H1648		0.433	0.362	0.538	0.243															
LCLC-103H	0.883	0.844	0.731	0.832	0.818	0.446	0.522	0.464	0.456	0.46	1.12	0.979	0.976	0.928	1.06					
SW 900	0.51	0.547	0.23	0.138	0.131	0.731	0.314	0.118	0.0729	0.0968										
IA-LM	0.911	1.02	0.927	0.819	0.823						0.807	0.663	0.758	0.291	0.0644	0.901	0.784	0.757	0.237	0.0731
NCI-H1563						0.493	0.504	0.481	0.42	0.324	0.903	0.836	0.562	0.462	0.473					
HCC-44	1.17	1.13	1.19	1.09	0.917						0.823	0.746	0.766	0.204	0.122	1	0.929	0.897	0.481	0.207
NCI-H2342	0.651	0.86	0.715	0.668	0.409	0.294	0.394	0.306	0.293	0.3										
NCI-H358	0.703	0.439	0.113	0.0837	0.0628	0.216	0.117	0.0644	0.0712	0.0579	0.752	0.268	0.152	0.118	0.0862					
ABC-1	1.15	1.15	1.21	1.06	0.724	0.607	0.666	0.633	0.514	0.392	1.19	1.08	1.04	1.3	0.898					
NCI-H522	0.982	0.944	0.518	0.423	0.382	0.822	0.799	0.77	0.632	0.443										
NCI-H650	0.443	0.497	0.477	0.32	0.193	0.427	0.468	0.4	0.256	0.136	0.759	0.685	0.6	0.476	0.134					
NCI-H1792						0.761	0.75	0.611	0.493	0.31	0.997	1.02	0.897	0.848	0.19	0.592	0.675	0.523	0.477	0.115

Source: the supplement of paper PMC10307832
